In PubChem BioAssay (NCI):
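These data come from cells grown in 96-well plates and exposed to compound for 48 hours at five concentrations. TGI marks complete inhibition of growth.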

How the values were obtained:
Assay in all cases: NCI anticancer screen, dose series, 48 h
786-0 renal = test system: 786-0 renal
A498 renal = test system: A498 renal
A549 NSCLC = test system: A549 NSCLC
ACHN renal = test system: ACHN renal
CAKI-1 renal = test system: CAKI-1 renal
CCRF-CEM leukemia = test system: CCRF-CEM leukemia
COLO 205 colon = test system: COLO 205 colon
DU-145 prostate = test system: DU-145 prostate
EKVX NSCLC = test system: EKVX NSCLC
HCC-2998 colon = test system: HCC-2998 colon
HCT-116 colon = test system: HCT-116 colon
HCT-15 colon = test system: HCT-15 colon
HL-60(TB) leukemia = test system: HL-60(TB) leukemia
HOP-62 NSCLC = test system: HOP-62 NSCLC
HOP-92 NSCLC = test system: HOP-92 NSCLC
HS 578T breast = test system: HS 578T breast
HT29 colon = test system: HT29 colon
IGROV1 ovarian = test system: IGROV1 ovarian
K-562 leukemia = test system: K-562 leukemia
KM12 colon = test system: KM12 colon
LOX IMVI melanoma = test system: LOX IMVI melanoma
M14 melanoma = test system: M14 melanoma
MALME-3M melanoma = test system: MALME-3M melanoma
MCF7 breast = test system: MCF7 breast
MDA-MB-231 breast = test system: MDA-MB-231 breast
MDA-MB-435 = test system: MDA-MB-435
MDA-N = test system: MDA-N
MOLT-4 leukemia = test system: MOLT-4 leukemia
NCI-H226 lung = test system: NCI-H226 lung
NCI-H23 lung = test system: NCI-H23 lung
NCI-H460 lung = test system: NCI-H460 lung
NCI-H522 lung = test system: NCI-H522 lung
NCI/ADR-RES ovarian = test system: NCI/ADR-RES ovarian
OVCAR-3 ovarian = test system: OVCAR-3 ovarian
OVCAR-4 ovarian = test system: OVCAR-4 ovarian
OVCAR-5 ovarian = test system: OVCAR-5 ovarian
OVCAR-8 ovarian = test system: OVCAR-8 ovarian
PC-3 prostate = test system: PC-3 prostate
RPMI-8226 leukemia = test system: RPMI-8226 leukemia
RXF 393 renal = test system: RXF 393 renal
SF-268 CNS = test system: SF-268 CNS
SF-295 CNS = test system: SF-295 CNS
SF-539 CNS = test system: SF-539 CNS
SK-MEL-2 melanoma = test system: SK-MEL-2 melanoma
SK-MEL-28 melanoma = test system: SK-MEL-28 melanoma
SK-MEL-5 melanoma = test system: SK-MEL-5 melanoma
SK-OV-3 ovarian = test system: SK-OV-3 ovarian
SN12C renal = test system: SN12C renal
SNB-19 CNS = test system: SNB-19 CNS
SNB-75 CNS = test system: SNB-75 CNS
SR leukemia = test system: SR leukemia
SW-620 colon = test system: SW-620 colon
T-47D breast = test system: T-47D breast
TK-10 renal = test system: TK-10 renal
U251 CNS = test system: U251 CNS
UACC-257 melanoma = test system: UACC-257 melanoma
UO-31 renal = test system: UO-31 renal
UACC-62 melanoma = test system: UACC-62 melanoma

## CN(C)CCCNC(=O)CCNC(=O)c1cc(NC(=O)c2cc(NC(=O)c3cc(NC(=O)c4nc(NC(=O)CCCNC(=O)c5cc(NC(=O)c6cc(NC(=O)c7cc(NC(=O)c8nccn8C)cn7C)cn6C)cn5C)cn4C)cn3C)cn2C)cn1C
786-0 renal
  TGI: > 100 µM
A498 renal
  TGI: > 100 µM
A549 NSCLC
  TGI: > 100 µM
ACHN renal
  TGI: > 100 µM
CAKI-1 renal
  TGI: > 100 µM
CCRF-CEM leukemia
  TGI: > 100 µM
COLO 205 colon
  TGI: > 100 µM
DU-145 prostate
  TGI: > 100 µM
EKVX NSCLC
  TGI: > 100 µM
HCC-2998 colon
  TGI: > 100 µM
HCT-116 colon
  TGI: > 100 µM
HCT-15 colon
  TGI: > 100 µM
HL-60(TB) leukemia
  TGI: > 100 µM
HOP-62 NSCLC
  TGI: > 100 µM
HOP-92 NSCLC
  TGI: > 100 µM
HS 578T breast
  TGI: > 100 µM
HT29 colon
  TGI: > 100 µM
IGROV1 ovarian
  TGI: > 100 µM
K-562 leukemia
  TGI: > 100 µM
KM12 colon
  TGI: > 100 µM
LOX IMVI melanoma
  TGI: > 100 µM
M14 melanoma
  TGI: > 100 µM
MALME-3M melanoma
  TGI: > 100 µM
MCF7 breast
  TGI: > 100 µM
MDA-MB-231 breast
  TGI: > 100 µM
MDA-MB-435
  TGI: > 100 µM
MDA-N
  TGI: > 100 µM
MOLT-4 leukemia
  TGI: > 100 µM
NCI-H226 lung
  TGI: > 100 µM
NCI-H23 lung
  TGI: > 100 µM
NCI-H460 lung
  TGI: > 100 µM
NCI-H522 lung
  TGI: > 100 µM
NCI/ADR-RES ovarian
  TGI: > 100 µM
OVCAR-3 ovarian
  TGI: > 100 µM
OVCAR-4 ovarian
  TGI: > 100 µM
OVCAR-5 ovarian
  TGI: > 100 µM
OVCAR-8 ovarian
  TGI: > 100 µM
PC-3 prostate
  TGI: > 100 µM
RPMI-8226 leukemia
  TGI: > 100 µM
RXF 393 renal
  TGI: > 100 µM
SF-268 CNS
  TGI: > 100 µM
SF-295 CNS
  TGI: > 100 µM
SF-539 CNS
  TGI: > 100 µM
SK-MEL-2 melanoma
  TGI: > 100 µM
SK-MEL-28 melanoma
  TGI: > 100 µM
SK-MEL-5 melanoma
  TGI: > 100 µM
SK-OV-3 ovarian
  TGI: > 100 µM
SN12C renal
  TGI: > 100 µM
SNB-19 CNS
  TGI: > 100 µM
SNB-75 CNS
  TGI: > 100 µM
SR leukemia
  TGI: > 100 µM
SW-620 colon
  TGI: > 100 µM
T-47D breast
  TGI: > 100 µM
TK-10 renal
  TGI: > 100 µM
U251 CNS
  TGI: > 100 µM
UACC-257 melanoma
  TGI: > 100 µM
UO-31 renal
  TGI: > 100 µM

## CCOC(CN=C=S)OCC
786-0 renal
  TGI: > 10 µM
A498 renal
  TGI: > 10 µM
A549 NSCLC
  TGI: > 10 µM
ACHN renal
  TGI: > 10 µM
CAKI-1 renal
  TGI: > 10 µM
CCRF-CEM leukemia
  TGI: > 10 µM
COLO 205 colon
  TGI: > 10 µM
DU-145 prostate
  TGI: > 10 µM
EKVX NSCLC
  TGI: > 10 µM
HCC-2998 colon
  TGI: > 10 µM
HCT-116 colon
  TGI: > 10 µM
HCT-15 colon
  TGI: > 10 µM
HL-60(TB) leukemia
  TGI: > 10 µM
HOP-62 NSCLC
  TGI: > 10 µM
HOP-92 NSCLC
  TGI: > 10 µM
HS 578T breast
  TGI: > 10 µM
HT29 colon
  TGI: > 10 µM
IGROV1 ovarian
  TGI: > 10 µM
K-562 leukemia
  TGI: > 10 µM
KM12 colon
  TGI: > 10 µM
LOX IMVI melanoma
  TGI: > 10 µM
M14 melanoma
  TGI: > 10 µM
MALME-3M melanoma
  TGI: > 10 µM
MCF7 breast
  TGI: > 10 µM
MDA-MB-231 breast
  TGI: > 10 µM
MDA-MB-435
  TGI: > 10 µM
MDA-N
  TGI: > 10 µM
MOLT-4 leukemia
  TGI: > 10 µM
NCI-H226 lung
  TGI: > 10 µM
NCI-H23 lung
  TGI: > 10 µM
NCI-H460 lung
  TGI: > 10 µM
NCI-H522 lung
  TGI: > 10 µM
NCI/ADR-RES ovarian
  TGI: > 10 µM
OVCAR-3 ovarian
  TGI: > 10 µM
OVCAR-4 ovarian
  TGI: > 10 µM
OVCAR-8 ovarian
  TGI: > 10 µM
PC-3 prostate
  TGI: > 10 µM
RPMI-8226 leukemia
  TGI: > 10 µM
RXF 393 renal
  TGI: > 10 µM
SF-268 CNS
  TGI: > 10 µM
SF-295 CNS
  TGI: > 10 µM
SF-539 CNS
  TGI: > 10 µM
SK-MEL-2 melanoma
  TGI: > 10 µM
SK-MEL-28 melanoma
  TGI: > 10 µM
SK-MEL-5 melanoma
  TGI: > 10 µM
SK-OV-3 ovarian
  TGI: > 10 µM
SN12C renal
  TGI: > 10 µM
SNB-19 CNS
  TGI: > 10 µM
SNB-75 CNS
  TGI: > 10 µM
SR leukemia
  TGI: > 10 µM
SW-620 colon
  TGI: > 10 µM
T-47D breast
  TGI: > 10 µM
TK-10 renal
  TGI: > 10 µM
U251 CNS
  TGI: > 10 µM
UACC-257 melanoma
  TGI: > 10 µM
UACC-62 melanoma
  TGI: > 10 µM
UO-31 renal
  TGI: > 10 µM

## O=C(CCCN1CCC2(CC1)OC(=O)N(c1ccccc1)C2=O)c1ccccc1
786-0 renal
  TGI: > 100 µM
A498 renal
  TGI: > 100 µM
A549 NSCLC
  TGI: > 100 µM
ACHN renal
  TGI: > 100 µM
CAKI-1 renal
  TGI: > 100 µM
CCRF-CEM leukemia
  TGI: > 100 µM
COLO 205 colon
  TGI: > 100 µM
DU-145 prostate
  TGI: > 100 µM
EKVX NSCLC
  TGI: > 100 µM
HCC-2998 colon
  TGI: > 100 µM
HCT-116 colon
  TGI: > 100 µM
HCT-15 colon
  TGI: > 100 µM
HL-60(TB) leukemia
  TGI: > 100 µM
HOP-62 NSCLC
  TGI: > 100 µM
HOP-92 NSCLC
  TGI: > 100 µM
HS 578T breast
  TGI: > 100 µM
HT29 colon
  TGI: > 100 µM
IGROV1 ovarian
  TGI: > 100 µM
K-562 leukemia
  TGI: > 100 µM
KM12 colon
  TGI: > 100 µM
LOX IMVI melanoma
  TGI: > 100 µM
M14 melanoma
  TGI: > 100 µM
MALME-3M melanoma
  TGI: > 100 µM
MCF7 breast
  TGI: > 100 µM
MDA-MB-231 breast
  TGI: 93.4 µM
MDA-MB-435
  TGI: > 100 µM
MDA-N
  TGI: > 100 µM
MOLT-4 leukemia
  TGI: > 100 µM
NCI-H226 lung
  TGI: > 100 µM
NCI-H23 lung
  TGI: > 100 µM
NCI-H460 lung
  TGI: > 100 µM
NCI-H522 lung
  TGI: > 100 µM
NCI/ADR-RES ovarian
  TGI: > 100 µM
OVCAR-3 ovarian
  TGI: > 100 µM
OVCAR-4 ovarian
  TGI: > 100 µM
OVCAR-5 ovarian
  TGI: > 100 µM
OVCAR-8 ovarian
  TGI: > 100 µM
PC-3 prostate
  TGI: > 100 µM
RPMI-8226 leukemia
  TGI: > 100 µM
RXF 393 renal
  TGI: > 100 µM
SF-268 CNS
  TGI: > 100 µM
SF-295 CNS
  TGI: > 100 µM
SF-539 CNS
  TGI: > 100 µM
SK-MEL-2 melanoma
  TGI: > 100 µM
SK-MEL-28 melanoma
  TGI: > 100 µM
SK-MEL-5 melanoma
  TGI: > 100 µM
SK-OV-3 ovarian
  TGI: > 100 µM
SN12C renal
  TGI: > 100 µM
SNB-19 CNS
  TGI: > 100 µM
SNB-75 CNS
  TGI: > 100 µM
SR leukemia
  TGI: > 100 µM
SW-620 colon
  TGI: > 100 µM
T-47D breast
  TGI: > 100 µM
TK-10 renal
  TGI: > 100 µM
U251 CNS
  TGI: > 100 µM
UACC-257 melanoma
  TGI: > 100 µM
UACC-62 melanoma
  TGI: > 100 µM
UO-31 renal
  TGI: 46.3 µM
